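Protocol summary: plate cells (96-well), add compound at 5 concentrations, incubate 48 h, interpolate endpoints linearly. TGI: total growth inhibition.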
How the values were obtained:
Experiment in all cases: NCI anticancer screen, dose series, 48 h
[1] = tested on: 786-0 renal
[2] = tested on: CCRF-CEM leukemia
[3] = tested on: HCT-116 colon
[4] = tested on: HOP-92 NSCLC
[5] = tested on: HT29 colon
[6] = tested on: NCI-H522 lung
[7] = tested on: NCI/ADR-RES ovarian
[8] = tested on: SF-539 CNS
[9] = tested on: SNB-19 CNS
[10] = tested on: UACC-257 melanoma

SMILES | TGI [1] | TGI [2] | TGI [3] | TGI [4] | TGI [5] | TGI [6] | TGI [7] | TGI [8] | TGI [9] | TGI [10]
O=C1Nc2cccc(Cl)c2/C1=C\c1c(-c2ccccc2)nc2n1CCS2 | 36.2 µM | 33.1 µM | 54.6 µM | 56.9 µM | 42.5 µM | > 100 µM | > 100 µM | 36 µM | 66.1 µM | 51.4 µM
COc1cccc(NC(=O)CC(=O)n2nc(-c3ccccc3)c(N=Nc3ccc(Cl)cc3)c2-c2ccccc2)c1 | 64.4 µM | > 39.6 µM | 67 µM | > 75 µM | 56.7 µM | 59.8 µM | 52.6 µM | > 74.8 µM | > 100 µM | > 100 µM
COc1ccc(OC)c2c(C)ccnc12 | > 100 µM | > 29.8 µM | > 100 µM | 90.8 µM | > 100 µM | 21.8 µM | 67.4 µM | > 68.7 µM | > 100 µM | > 92.5 µM
c1ccc2c(Nc3ncco3)cccc2c1 | > 10 µM | > 10 µM | > 10 µM | > 10 µM | > 10 µM | > 10 µM | > 10 µM | > 10 µM | > 10 µM | > 10 µM
CC(OP(=O)(O)O)C(N)C(=O)O (stereo not given) | > 100 µM | > 100 µM | > 100 µM | > 100 µM | > 100 µM | > 100 µM | > 100 µM | > 100 µM | > 100 µM | > 100 µM
CCOC(=O)C1CCC(=O)N1C(=O)c1cccc(Cl)c1 (stereo not given) | > 100 µM | > 100 µM | > 100 µM | > 100 µM | > 100 µM | > 100 µM | > 100 µM | > 100 µM | > 100 µM | > 100 µM
Cn1c2ccc(Cl)cc2c2ccc3c(c21)C(=O)C=CC3=O | > 10 µM | > 10 µM | > 10 µM | > 10 µM | > 10 µM | > 10 µM | > 10 µM | > 10 µM | > 10 µM | > 10 µM
Oc1ccc(Cl)cc1-c1cc(-c2ccccc2)nc(=S)[nH]1 | 64 µM | > 100 µM | > 100 µM | 47.6 µM | > 100 µM | > 100 µM | > 100 µM | > 100 µM | > 100 µM | > 100 µM
COc1ccc(/C=c2\[nH]c3nc(=O)c(N4CCCCC4)c(N)n3c2=O)cc1 | > 100 µM | > 100 µM | > 100 µM | > 100 µM | > 100 µM | > 100 µM | > 100 µM | > 100 µM | > 100 µM | > 100 µM
O=c1[nH]cc(N=Cc2cc(Cl)ccc2O)c(=O)[nH]1 | 70.6 µM | 19 µM | > 100 µM | 89.8 µM | > 100 µM | > 100 µM | 53.6 µM | 7.43 µM | > 100 µM | > 100 µM
Cc1ccc(-n2nncc2[Si](C)(C)C)s1 | > 100 µM | 56.7 µM | > 100 µM | > 100 µM | > 100 µM | > 100 µM | > 100 µM | > 100 µM | > 100 µM | > 100 µM
CCOC(=O)c1c(N2CCCC2)[nH]c(=O)c(C(c2ccc(N(C)C)cc2)c2c(O)c(C(=O)OCC)c(N3CCCC3)[nH]c2=O)c1O | > 100 µM | > 100 µM | > 100 µM | > 100 µM | > 100 µM | > 100 µM | > 100 µM | > 100 µM | > 100 µM | > 100 µM
O=c1cc(-c2ccccc2)oc2c1ccc1[nH]c3ccccc3c(=O)c12 | > 100 µM | > 100 µM | > 100 µM | > 100 µM | > 100 µM | > 100 µM | > 100 µM | > 100 µM | > 100 µM | > 100 µM
COc1ccc(-n2c(N)c(C#N)c(C#N)c2-c2ccco2)cc1 | > 100 µM | > 100 µM | > 100 µM | > 100 µM | > 100 µM | > 100 µM | > 100 µM | > 100 µM | > 100 µM | > 100 µM
O=C1C=CC(=O)c2c(O)c(N3CCOCC3)c(Cl)c(O)c21 | 0.84 µM | > 10 µM | 0.403 µM | 0.675 µM | 0.586 µM | 0.83 µM | 1.43 µM | 1 µM | 3.17 µM | 0.911 µM
c1cc2cc3c4c5c(cc6ccc7cc8cc9c%10c8c8c7c6c5c8c5c%10c(c1C9N1CCOCCOCCOCCOCCOCC1)c2c45)C3 (stereo not given) | > 100 µM | > 100 µM | > 100 µM | > 100 µM | > 100 µM | > 100 µM | > 100 µM | > 100 µM | > 100 µM | > 100 µM
COc1c(C)c(C/C=C(\C)CCCC(C)CCCC(C)CCCC(C)C)c(OC)c2ccccc12 (stereo not given) | > 100 µM | > 100 µM | > 100 µM | > 100 µM | > 100 µM | > 100 µM | > 100 µM | > 100 µM | > 100 µM | > 100 µM
CCOc1ccc2nc3nc(=O)[nH]c(C)c3c(NC(C)(CO)CO)c2c1 | > 100 µM | > 100 µM | > 100 µM | > 100 µM | > 100 µM | > 100 µM | > 100 µM | > 100 µM | > 100 µM | > 100 µM
O=C1C=CC2(O[C@H](C3CCCCC3)[C@@H](C3CCCCC3)O2)C(SC(=O)c2ccccc2)C1 (stereo not given in full) | 5.09 µM | 5.87 µM | 1.75 µM | 16.8 µM | 3.85 µM | 2.23 µM | 13.1 µM | 11.6 µM | 6.56 µM | 16.2 µM
Cc1nc(C)c(N2CCN(CN)CC2)c(=O)[nH]1 | > 100 µM | > 100 µM | > 100 µM | > 100 µM | > 100 µM | > 100 µM | > 100 µM | > 100 µM | > 100 µM | > 100 µM
Cc1nc2ccc(Cl)cc2c2c1CCO2 | > 100 µM | > 100 µM | > 100 µM | > 100 µM | > 100 µM | > 100 µM | > 100 µM | > 100 µM | > 100 µM | > 100 µM
COc1cc(S(=O)(=O)Nc2ccc(-c3csc(N4C(=O)C(Cl)C4c4ccccc4O)n3)cc2)ccc1Cl (stereo not given) | > 100 µM | 9.13 µM | > 100 µM | 91.9 µM | > 100 µM | 3.48 µM | > 100 µM | > 100 µM | > 100 µM | 88.6 µM
Cc1cc2c(c(C(=O)NCC(=O)O)c1)Oc1c(cc(C)cc1C(=O)NCC(=O)O)S2 | > 100 µM | > 100 µM | > 100 µM | > 100 µM | > 100 µM | > 100 µM | > 100 µM | > 100 µM | > 100 µM | > 100 µM
NC1CCCCC1NCCNC1CCCCC1N (stereo not given) | > 100 µM | > 100 µM | > 100 µM | > 100 µM | 36 µM | > 100 µM | > 100 µM | > 100 µM | > 100 µM | > 100 µM
Cc1cc(C)nc(NS(=O)(=O)c2ccc(NNc3c4ccccc4nc4c(C(=O)Nc5ccc(S(=O)(=O)Nc6cc(C)on6)cc5)cccc34)cc2)n1 | > 100 µM | 63.5 µM | > 100 µM | > 100 µM | 49.1 µM | 82.1 µM | > 100 µM | > 100 µM | > 100 µM | > 100 µM
C=CC(C)(C)/C=C/c1ccc(O)cc1 | > 100 µM | > 100 µM | > 100 µM | > 100 µM | > 100 µM | > 100 µM | > 100 µM | > 100 µM | > 100 µM | > 100 µM
C/C(=C\Cc1ccc(F)cc1)CCCCCC/C(C)=C/Cc1ccc(F)cc1 | 21.9 µM | 42.6 µM | 33 µM | 23.5 µM | 33.3 µM | 21 µM | 31.9 µM | 31.8 µM | 75.9 µM | 33.3 µM
Nc1ccc2c(=O)cc(-c3ccc(Br)s3)[nH]c2n1 | > 100 µM | > 100 µM | > 100 µM | > 100 µM | > 44.2 µM | > 23.1 µM | > 26.9 µM | 6.02 µM | > 100 µM | > 100 µM
C=C(Br)C[N+]12CN3CN(CN(C3)C1)C2 | > 100 µM | > 100 µM | > 100 µM | > 100 µM | > 100 µM | > 100 µM | > 100 µM | > 100 µM | > 100 µM | > 100 µM
